Source: patent publication US12398120B2, “Substituted hydantoinamides as ADAMTS7 antagonists” (BAYER AKTIENGESELLSCHAFT, priority 2019, dated 2025)

target: ADAMTS4 (Homo sapiens (Human), UniProt O75173); experiment: Selectivity assay for ADAMTS-7 modulators: ADAMTS4 (FRET substrate); format: biochemical; conditions: ADAMTS4 (R&D 4307-AD) 50 nM, substrate Dabcyl-EEVKAKVQPY-Glu(Edans)-NH2 1 μM, 120 min, 32° C.
Description: 1 μl test compound solution (dissolved in DMSO, at the corresponding concentration) or pure DMSO as a control was added per well. The enzymatic reaction was initiated by addition of 25 μl of the respective concentration of the respective FRET substrate (see table 2 below) in reaction buffer.
The increase of fluorescence intensity was measured in appropriate fluorescence plate reader (e.g. TECAN Ultra) using the respective wavelengths for excitation and emission. IC50 values were calculated from percentage of inhibition of enzyme activity as a function of test compound concentration.

Chain of ADAMTS4 (O75173 213-685): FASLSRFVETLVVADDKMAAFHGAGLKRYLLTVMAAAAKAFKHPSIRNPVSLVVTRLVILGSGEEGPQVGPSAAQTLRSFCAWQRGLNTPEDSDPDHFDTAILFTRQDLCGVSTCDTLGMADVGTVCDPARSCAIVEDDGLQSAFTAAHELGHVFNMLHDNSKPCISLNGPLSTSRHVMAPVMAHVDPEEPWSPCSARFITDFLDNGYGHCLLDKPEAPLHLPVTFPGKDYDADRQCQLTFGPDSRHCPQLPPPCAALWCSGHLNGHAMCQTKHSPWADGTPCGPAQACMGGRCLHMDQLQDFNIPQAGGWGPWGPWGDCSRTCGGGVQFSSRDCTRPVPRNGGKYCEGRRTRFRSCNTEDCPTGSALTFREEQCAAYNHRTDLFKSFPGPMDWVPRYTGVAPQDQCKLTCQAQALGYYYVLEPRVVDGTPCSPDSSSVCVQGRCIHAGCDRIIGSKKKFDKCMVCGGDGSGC

Compared with `Cc1scnc1C1(CNC(=O)c2ccccc2-c2ccc(C(F)(F)F)cc2)NC(=O)NC1=O` (racemic) [Example 1, Rac-N-{[4-(5-Methyl-1,3-Thiazol-4-Yl)-2,5-Dioxoimidazolidin-4-Yl]Methyl}-4′-(Trifluoromethyl)[Biphenyl]-2-Carboxamide], `Cc1ncsc1C1(CNC(=O)c2ccccc2-c2ccc(C(F)(F)F)cc2)NC(=O)NC1=O` (racemic) [Example 5, Rac-N-{[4-(4-Methyl-1,3-Thiazol-5-Yl)-2,5-Dioxoimidazolidin-4-Yl]Methyl}-4′-(Trifluoromethyl)[Biphenyl]-2-Carboxamide] is 1.8-fold higher in IC50: 6.5 µM for the first, 12 µM for the second. The first is the more potent here.

First: CCn1nccc1C1(CNC(=O)c2ccccc2-c2ccc(C(F)(F)F)cc2)NC(=O)NC1=O (racemic) [Example 4, Rac-N-{[4-(1-Ethyl-1H-Pyrazol-5-Yl)-2,5-Dioxoimidazolidin-4-Yl]Methyl}-4′-(Trifluoromethyl)[Biphenyl]-2-Carboxamide]
Second: O=C1NC(=O)C(CNC(=O)c2ccccc2-c2ccc(C(F)(F)F)cc2)(c2ccnn2CC(F)(F)F)N1 (racemic) [Example 6, Rac-N-({2,5-Dioxo-4-[1-(2,2,2-Trifluoroethyl)-1H-Pyrazol-5-Yl]Imidazolidin-4-Yl}Methyl)-4′-(Trifluoromethyl)[Biphenyl]-2-Carboxamide]
The IC50 of the first is 3.1-fold higher: 19 µM for the first, 6.2 µM for the second. The second is the more potent here.

Compared with `O=C1NC(=O)C(CNC(=O)c2ccccc2-c2ccc(C(F)(F)F)cc2)(c2ccccc2)N1` (racemic) [Example 12, Rac-N-[(2,5-Dioxo-4-Phenylimidazolidin-4-Yl)Methyl]-4′-(Trifluoromethyl)[Biphenyl]-2-Carboxamide], `O=C1NC(=O)C(CNC(=O)c2ccccc2-c2ccc(C(F)(F)F)nc2)(c2ccccc2)N1` (racemic) [Example 50, Rac-N-[(2,5-Dioxo-4-Phenylimidazolidin-4-Yl)Methyl]-2-[6-(Trifluoromethyl)Pyridin-3-Yl]Benzamide] is lower in IC50: over 50 µM for the first, 43 µM for the second.

Going from `Cc1c(C2(CNC(=O)c3ccccc3-c3ccc(C(F)(F)F)cc3)NC(=O)NC2=O)cnn1C` (racemic) [Example 14, Rac-N-{[4-(1,5-Dimethyl-1H-Pyrazol-4-Yl)-2,5-Dioxoimidazolidin-4-Yl]Methyl}-4′-(Trifluoromethyl)[Biphenyl]-2-Carboxamide] to `Cc1c(C2(CNC(=O)c3ccc(Cl)cc3-c3ccc(C(F)(F)F)cc3)NC(=O)NC2=O)cnn1C` (racemic) [Example 33, Rac-5-Chloro-N-{[4-(1,5-Dimethyl-1H-Pyrazol-4-Yl)-2,5-Dioxoimidazolidin-4-Yl]Methyl}-4′-(Trifluoromethyl)[Biphenyl]-2-Carboxamide], the IC50 falls from 17 µM to 5.2 µM (3.3-fold).

`Cc1nc(C)c(C2(CNC(=O)c3ccccc3-c3ccc(C(F)(F)F)cc3)NC(=O)NC2=O)s1` (racemic) [Example 15, Rac-N-{[4-(2,4-Dimethyl-1,3-Thiazol-5-Yl)-2,5-Dioxoimidazolidin-4-Yl]Methyl}-4′-(Trifluoromethyl)[Biphenyl]-2-Carboxamide] and `Cc1nc(C)c(C2(CNC(=O)c3ccccc3-c3ccc(C(F)(F)F)nc3)NC(=O)NC2=O)s1` (racemic) [Example 34, Rac-N-{[4-(2,4-Dimethyl-1,3-Thiazol-5-Yl)-2,5-Dioxoimidazolidin-4-Yl]Methyl}-2-[6-(Trifluoromethyl)Pyridin-3-Yl]Benzamide] are within 1.5-fold of each other in IC50: 7.75 µM for the first, 8.9 µM for the second.

`CCCC1(CNC(=O)c2ccccc2-c2ccc(C(F)(F)F)cc2)NC(=O)NC1=O` (racemic) [Example 24, Rac-N-[(2,5-Dioxo-4-Propylimidazolidin-4-Yl)Methyl]-4′-(Trifluoromethyl)[Biphenyl]-2-Carboxamide] and `CC(C)CCC1(CNC(=O)c2ccccc2-c2ccc(C(F)(F)F)cc2)NC(=O)NC1=O` (racemic) [Example 58, Rac-N-{[4-(3-Methylbutyl)-2,5-Dioxoimidazolidin-4-Yl]Methyl}-4′-(Trifluoromethyl)[Biphenyl]-2-Carboxamide] cannot be ordered by IC50: over 50 µM for the first, over 50 µM for the second.

`CC(C)(C)C1(CNC(=O)c2ccccc2-c2ccc(C(F)(F)F)cc2)NC(=O)NC1=O` (racemic) [Example 25, Rac-N-[(4-Tert-Butyl-2,5-Dioxoimidazolidin-4-Yl)Methyl]-4′-(Trifluoromethyl)[Biphenyl]-2-Carboxamide] and `O=C1NC(=O)C(CNC(=O)c2ccccc2-c2ccc(C(F)(F)F)cc2)(C2CCCC2)N1` (racemic) [Example 48, Rac-N-[(4-Cyclopentyl-2,5-Dioxoimidazolidin-4-Yl)Methyl]-4′-(Trifluoromethyl)[Biphenyl]-2-Carboxamide] cannot be ordered by IC50: over 50 µM for the first, over 50 µM for the second.

`O=C1NC(=O)C(CNC(=O)c2ccccc2-c2ccc(C(F)(F)F)cc2)(C2CCOCC2)N1` (racemic) [Example 29, Rac-N-{[2,5-Dioxo-4-(Tetrahydro-2H-Pyran-4-Yl)Imidazolidin-4-Yl]Methyl}-4′-(Trifluoromethyl)[Biphenyl]-2-Carboxamide] and `O=C1NC(=O)C(CNC(=O)c2ccccc2-c2ccc(C(F)(F)F)nc2)(C2CCOCC2)N1` (racemic) [Example 36, Rac-N-{[2,5-Dioxo-4-(Tetrahydro-2H-Pyran-4-Yl)Imidazolidin-4-Yl]Methyl}-2-[6-(Trifluoromethyl)Pyridin-3-Yl]Benzamide] cannot be ordered by IC50: over 50 µM for the first, over 50 µM for the second.

Compared with `O=C1NC(=O)C(CNC(=O)c2ccccc2-c2ccc(C(F)(F)F)cc2)(c2cnccn2)N1` (racemic) [Example 30, Rac-N-{[2,5-Dioxo-4-(Pyrazin-2-Yl)Imidazolidin-4-Yl]Methyl}-4′-(Trifluoromethyl)[Biphenyl]-2-Carboxamide], `O=C1NC(=O)C(CNC(=O)c2ccccc2-c2ccc(C(F)(F)F)cc2)(c2cccnn2)N1` (racemic) [Example 42, Rac-N-{[2,5-Dioxo-4-(Pyridazin-3-Yl)Imidazolidin-4-Yl]Methyl}-4′-(Trifluoromethyl)[Biphenyl]-2-Carboxamide] is higher in IC50: 45 µM for the first, over 50 µM for the second.

Compared with `Cc1nonc1C1(CNC(=O)c2ccccc2-c2ccc(C(F)(F)F)cc2)NC(=O)NC1=O` (racemic) [Example 32, Rac-N-{[4-(4-Methyl-1,2,5-Oxadiazol-3-Yl)-2,5-Dioxoimidazolidin-4-Yl]Methyl}-4′-(Trifluoromethyl)[Biphenyl]-2-Carboxamide], `Cc1conc1C1(CNC(=O)c2ccccc2-c2ccc(C(F)(F)F)cc2)NC(=O)NC1=O` (racemic) [Example 44, Rac-N-{[4-(4-Methyl-1,2-Oxazol-3-Yl)-2,5-Dioxoimidazolidin-4-Yl]Methyl}-4′-(Trifluoromethyl)[Biphenyl]-2-Carboxamide] is 3.2-fold lower in IC50: 35 µM for the first, 11 µM for the second.

Compared with `Cc1cn(C)nc1C1(CNC(=O)c2ccccc2-c2ccc(C(F)(F)F)nc2)NC(=O)NC1=O` (racemic) [Example 35, Rac-N-{[4-(1,4-Dimethyl-1H-Pyrazol-3-Yl)-2,5-Dioxoimidazolidin-4-Yl]Methyl}-2-[6-(Trifluoromethyl)Pyridin-3-Yl]Benzamide], `Cc1nn(C)cc1C1(CNC(=O)c2ccccc2-c2ccc(C(F)(F)F)nc2)NC(=O)NC1=O` (racemic) [Example 55, Rac-N-{[4-(1,3-Dimethyl-1H-Pyrazol-4-Yl)-2,5-Dioxoimidazolidin-4-Yl]Methyl}-2-[6-(Trifluoromethyl)Pyridin-3-Yl]Benzamide] is 3-fold higher in IC50: 10 µM for the first, 30 µM for the second.

Going from `Cc1cn(C)nc1C1(CNC(=O)c2ccccc2-c2ccc(C(F)(F)F)cc2)NC(=O)NC1=O` (racemic) [Example 39, Rac-N-{[4-(1,4-Dimethyl-1H-Pyrazol-3-Yl)-2,5-Dioxoimidazolidin-4-Yl]Methyl}-4′-(Trifluoromethyl)[Biphenyl]-2-Carboxamide] to `Cc1ncoc1C1(CNC(=O)c2ccccc2-c2ccc(C(F)(F)F)cc2)NC(=O)NC1=O` (racemic) [Example 43, Rac-N-{[4-(4-Methyl-1,3-Oxazol-5-Yl)-2,5-Dioxoimidazolidin-4-Yl]Methyl}-4′-(Trifluoromethyl)[Biphenyl]-2-Carboxamide], the IC50 rises from 10 µM to 28 µM (2.8-fold). The first is the more potent here.

`O=C1NC(=O)C(CNC(=O)c2ccccc2-c2ccc(C(F)(F)F)nc2)(c2ccnn2C2CC2)N1` (racemic) [Example 40, Rac-N-{[4-(1-Cyclopropyl-1H-Pyrazol-5-Yl)-2,5-Dioxoimidazolidin-4-Yl]Methyl}-2-[6-(Trifluoromethyl)Pyridin-3-Yl]Benzamide] and `Cc1cnn(C)c1C1(CNC(=O)c2ccccc2-c2ccc(C(F)(F)F)nc2)NC(=O)NC1=O` (racemic) [Example 52, Rac-N-{[4-(1,4-Dimethyl-1H-Pyrazol-5-Yl)-2,5-Dioxoimidazolidin-4-Yl]Methyl}-2-[6-(Trifluoromethyl)Pyridin-3-Yl]Benzamide] are within 1.5-fold of each other in IC50: 21 µM for the first, 19 µM for the second.

`Cc1nocc1C1(CNC(=O)c2ccccc2-c2ccc(C(F)(F)F)nc2)NC(=O)NC1=O` (racemic) [Example 41, Rac-N-{[4-(3-Methyl-1,2-Oxazol-4-Yl)-2,5-Dioxoimidazolidin-4-Yl]Methyl}-2-[6-(Trifluoromethyl)Pyridin-3-Yl]Benzamide] and `Cc1nscc1C1(CNC(=O)c2ccccc2-c2ccc(C(F)(F)F)nc2)NC(=O)NC1=O` (racemic) [Example 49, Rac-N-{[4-(3-Methyl-1,2-Thiazol-4-Yl)-2,5-Dioxoimidazolidin-4-Yl]Methyl}-2-[6-(Trifluoromethyl)Pyridin-3-Yl]Benzamide] are within 1.5-fold of each other in IC50: 30 µM for the first, 22 µM for the second.

First: Cc1nsnc1C1(CNC(=O)c2ccccc2-c2ccc(C(F)(F)F)nc2)NC(=O)NC1=O (racemic) [Example 53, Rac-N-{[4-(4-Methyl-1,2,5-Thiadiazol-3-Yl)-2,5-Dioxoimidazolidin-4-Yl]Methyl}-2-[6-(Trifluoromethyl)Pyridin-3-Yl]Benzamide]
Second: CCCC1(CNC(=O)c2ccccc2-c2ccc(C(F)(F)F)nc2)NC(=O)NC1=O (racemic) [Example 57, Rac-N-[(2,5-Dioxo-4-Propylimidazolidin-4-Yl)Methyl]-2-[6-(Trifluoromethyl)Pyridin-3-Yl]Benzamide]
The IC50 of the first is lower: 41 µM for the first, over 50 µM for the second.
